Results from patent US11485987B2, “Methods for inducing bioorthogonal reactivity” (University of Delaware, priority 2015, dated 2022).

What was measured:
A19V D222G APEX2 = test: Oxidation of 15 by APEX2 variant A19V D222G APEX2; format: biochemical; conditions: 15 40 μM, enzyme 275 nM, PBS with EDTA
Procedure: 15 (40 μM) from methanol stock solutions was added to PBS containing […] EDTA. After 10s, APEX2 (275 nM) was dosed in and oxidation was monitored at 325 nm for 15. The procedure stated above was repeated for F41A APEX2 and A19V D222G APEX2. (FIG. 17).

[1] = Dihydrotetrazine oxidative stability (UV-vis); format: physicochemical
Source text: A challenge to the development of catalytic methods for turning on the tetrazine ligation was the identification of a DHTz/Tz pair that would be stable in both oxidation states (FIG. 1, panel B). For most redox couples, either the DHTz is too readily oxidized in air (e.g., 1), or the Tz is too reactive toward water and other nucleophiles (e.g., 2). The inventors show here that the dipyridyl DHTz/Tz pair (3/4) has good stability in both states (FIG. 1, panel C). Dihydrotetrazines 3 are highly resistant toward background oxidation in organic solvents, and a number of derivatives have been synthesized and shown stable even to silica gel chromatography. […] Aqueous solutions of 3a were handled in glassware that had been first rinsed with 2.0 mM EDTA in PBS to remove adventitious metal impurities. After standing in the dark at 25° C. in PBS buffer, a solution of 3a was monitored by UV-vis and shown to retain 99 and 96% of the DHTz oxidation state over 30 min and 2.5 hours respectively. […] In PBS containing 10% mouse serum, 90% of 3a was retained in the DHTz oxidation state after 1 h. Analogs of tetrazines 4 have been described previously and used broadly for applications in nuclear medicine and cell imaging. […] The stability of a radiolabeled derivative of tetrazine 4b has been studied by Robillard at 37° C. in PBS, serum and blood, with 97%, 87% and 59% retention of the tetrazine observed after 2 hours.
A solution (3 mL) containing 3a (35 μM) in PBS buffer was prepared in a cuvette from stock solutions. Oxidation was monitored by recording solution absorbance at 0, 30 and 150 minutes. The cuvette was stored in the dark between measurements. Comparison of HRP, cytochrome C and hemoglobin: Solutions (1 mL) of 3a (30 μM) in PBS buffer were prepared in a cuvette from stock solutions. To the solutions, either hemoglobin ([…]) or cytochrome C (9 μM) were added and while oxidation was monitored every 30 seconds by measuring absorbance at 325 nm.

[2] = Electrochemical oxidation / cyclic voltammetry; format: physicochemical; conditions: phosphate buffer pH 7.0, vs Ag/AgCl reference
Procedure: Compound 3a has a maximum in the UV-vis spectrum at 292 nm, and 4a has a maximum at 325 nm with a less intense peak at 525 nm (FIG. 2). […] This isosbestic point was also conserved in the photocatalytic and enzymatic (FIG. 2) oxidations of 3a described below, and the spectroscopic changes at 292 and 325 nm were routinely used for monitoring reaction progress.
All electrochemistry was performed using a CHI-620D potentiostat/galvanostat. Cyclic voltammetry was performed using a standard three-electrode configuration. CV scans were recorded for quiescent solutions using a platinum disk working electrode (2.0 mm diameter CH Instruments) and a platinum wire auxiliary electrode. All potentials were measured against a Ag/AgCl reference electrode (CH Instruments, 1 M KCl). CV and DPV experiments were performed in a nitrogen saturated 0.1 M potassium phosphate (KH2PO4) buffered solution at pH 7.0. The concentration of the analyte was 1.0 mM for all experiments.

[3] = Fe-porphyrin catalyzed oxidation of DHTz; conditions: DHTz 35 uM in PBS pH 7.4, air
Procedure: (§1) 4-Oxo-4-((6-(6-(pyridin-2-yl)-1,4-dihydro-1,2,4,5-tetrazin-3-yl)pyridin-3-yl)amino)butanoic acid (35 uM in PBS (pH 7.4), 2 mL) was placed in a 1 cm×1 cm cuvette with a strongly stirred magnetic stir bar in an atmosphere of air. A solution of Fe-TMPyP (50 uM in PBS (pH 7.4), 20 uL) was added to the cuvette. The reaction was monitored by a UV-Vis spectrometer at 280 nm and 325 nm.
as §1, with “Fe-TPPS” for “Fe-TMPyP”

SMILES | oxidation by A19V D222G APEX2 (tetrazine formation at 325 nm) (A19V D222G APEX2) | retained DHTz oxidation state ([1]; 35 μM in MeOH, ambient light, 1 hour) [%] | retained DHTz oxidation state ([1]; 35 μM in MeOH, ambient light, 2 hours) [%] | retained DHTz oxidation state ([1]; PBS buffer, ambient light, 25° C., 1 hour) [%] | retained DHTz oxidation state ([1]; PBS buffer, ambient light, 25° C., 2 hours) [%] | retained DHTz oxidation state ([1]; PBS buffer, dark, 25° C., 30 min) [%] | retained DHTz oxidation state ([1]; PBS buffer, dark, 25° C., 2.5 hours) [%] | voltammogram peak (electrochemical oxidation) [2] [V] | time to 50% completion of oxidation ([3]; Fe-TMPyP) [min] | time to 95% completion of oxidation ([3]; Fe-TMPyP) [min] | time to 50% completion of oxidation ([3]; Fe-TPPS) [min]
O=C(O)CCCC(=O)Nc1ccc(C2=NNC(c3ccccn3)=NN2)nc1 [compound 15] | can oxidize 15 |  |  |  |  |  |  |  |  |  | 
O=C(O)CCC(=O)Nc1ccc(C2=NNC(c3ccccn3)=NN2)nc1 [3a, 4-oxo-4-((6-(6-(pyridin-2-yl)-1,4-dihydro-1,2,4,5-tetrazin-3-yl)pyridin-3-yl)amino)butanoic Acid] |  | 99 | 98 | 97 | 94 | 99 | 96 | 0.02 | ≤ 1 | ≤ 5 | ≤ 5
